Reference: patent publication US8580918B2, “Peptidic GLP-2 agonists” (Ferring B.V., priority 2009, dated 2013)
Read-outs that look alike come from different tables or passages of the source. Where a SMILES comes first, the peptide text is derived from it. [ ]: non-standard residue; d: D form. Nle = CCCC[C@H](N)C(=O)O

Experiment: Pharmacokinetics in rats after intravenous bolus injection (systemic clearance)
Format: in vivo
Settings: rat, plasma, adult male Sprague-Dawley rats, i.v. bolus, read-out: CL (ml/kg/min) Average
In short: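 Adult male Sprague-Dawley rats (3-4, doubly cannulated) given IV jugular bolus at 0.1-1.0 mg/kg; serial carotid blood to K2EDTA plasma, LC/MS/MS quantitation. CL = dose/kg divided by AUC∞ (noncompartmental, trapezoid); mean ± SD.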

[1] = 0.2 mg FB/kg, dose 0.20 mg FB/kg

SMILES	clearance (0.1 mg FB/kg, dose 0.10 mg FB/kg)	clearance [1]
CCCC[C@H](NC(=O)[C@H](CCC(=O)O)NC(=O)[C@H](CC(=O)O)NC(=O)[C@H](CO)NC(=O)[C@H](Cc1ccccc1)NC(=O)[C@H](CO)NC(=O)CNC(=O)[C@H](CC(=O)O)NC(=O)CNC(=O)[C@@H](N)Cc1cnc[nH]1)C(=O)N[C@H](Cc1ccccc1)C(=O)N[C@H](C(=O)N[C@H](C(=O)N[C@@H](CC(C)C)C(=O)N[C@@H](CC(=O)O)C(=O)N[C@@H](CC(C)C)C(=O)N[C@@H](CC(C)C)C(=O)N[C@@H](C)C(=O)N[C@@H](C)C(=O)N[C@@H](CCCNC(=N)N)C(=O)N[C@@H](CC(=O)O)C(=O)N[C@@H](Cc1ccccc1)C(=O)N[C@H](C(=O)N[C@@H](CC(N)=O)C(=O)N[C@@H](Cc1c[nH]c2ccccc12)C(=O)N[C@@H](CC(C)C)C(=O)N[C@H](C(=O)N[C@@H](CCC(N)=O)C(=O)N[C@H](C(=O)N[C@@H](CCCCN)C(=O)N[C@H](C(=O)N[C@H](C(=O)N[C@@H](CC(=O)O)C(N)=O)[C@@H](C)O)[C@@H](C)CC)[C@@H](C)O)[C@@H](C)CC)[C@@H](C)CC)[C@@H](C)CC)[C@@H](C)O [Compound 51, [Gly2,Nle10,D-Phe11,Leu16] hGLP-2(1-33)-NH2] (H-HGDGSFSDE[Nle][dF]TILDLLAARDFINWLIQTKITD-NH2)	0.2 mL/kg/min	0.27 mL/kg/min
CCCC[C@H](NC(=O)[C@H](CCC(=O)O)NC(=O)[C@H](CC(=O)O)NC(=O)[C@H](CO)NC(=O)[C@H](Cc1ccccc1)NC(=O)[C@H](CO)NC(=O)CNC(=O)[C@H](CC(=O)O)NC(=O)CNC(=O)[C@@H](N)Cc1c[nH]cn1)C(=O)N[C@H](Cc1ccccc1)C(=O)N[C@H](C(=O)N[C@H](C(=O)N[C@@H](CC(C)C)C(=O)N[C@@H](CC(=O)O)C(=O)N[C@@H](CC(C)C)C(=O)N[C@@H](CC(C)C)C(=O)N[C@@H](C)C(=O)N[C@H](C(=O)N[C@@H](CCCNC(=N)N)C(=O)N[C@@H](CC(=O)O)C(=O)N[C@@H](Cc1ccccc1)C(=O)N[C@H](C(=O)N[C@@H](CC(N)=O)C(=O)N[C@@H](Cc1c[nH]c2ccccc12)C(=O)N[C@@H](CC(C)C)C(=O)N[C@H](C(=O)N[C@@H](CCC(N)=O)C(=O)N[C@H](C(=O)N[C@@H](CCCCN)C(N)=O)[C@@H](C)O)[C@@H](C)CC)[C@@H](C)CC)[C@@H](C)O)[C@@H](C)CC)[C@@H](C)O [Compound 52, [Gly2,Nle10,D-Phe11,Leu16,Thr19] hGLP-2(1-30)-NH2] (H-HGDGSFSDE[Nle][dF]TILDLLATRDFINWLIQTK-NH2)		0.49 mL/kg/min
CCCC[C@H](NC(=O)[C@H](CCC(=O)O)NC(=O)[C@H](CC(=O)O)NC(=O)[C@H](CO)NC(=O)[C@H](Cc1ccccc1)NC(=O)[C@H](CO)NC(=O)CNC(=O)[C@H](CC(=O)O)NC(=O)CNC(=O)[C@@H](N)Cc1cnc[nH]1)C(=O)N[C@H](Cc1ccccc1)C(=O)N[C@H](C(=O)N[C@H](C(=O)N[C@@H](CC(C)C)C(=O)N[C@@H](CC(=O)O)C(=O)N[C@@H](CC(C)C)C(=O)N[C@@H](CC(C)C)C(=O)N[C@@H](C)C(=O)N[C@@H](C)C(=O)N[C@@H](CCCNC(=N)N)C(=O)N[C@@H](CC(=O)O)C(=O)N[C@@H](Cc1ccccc1)C(=O)N[C@H](C(=O)N[C@@H](CC(N)=O)C(=O)N[C@@H](Cc1c[nH]c2ccccc12)C(=O)N[C@@H](CC(C)C)C(=O)N[C@H](C(=O)N[C@@H](CCC(N)=O)C(=O)N[C@H](C(=O)N[C@@H](CCCCN)C(=O)N[C@H](C(=O)N[C@H](C(=O)N[C@@H](CC(=O)O)C(=O)NCC)[C@@H](C)O)[C@@H](C)CC)[C@@H](C)O)[C@@H](C)CC)[C@@H](C)CC)[C@@H](C)CC)[C@@H](C)O [Compound 53, [Gly2,Nle10,D-Phe11,Leu16] hGLP-2(1-33)-NHEt] (H-HGDGSFSDE[Nle][dF]TILDLLAARDFINWLIQTKITD-NHEt)		0.19 mL/kg/min
